Read-outs that look alike come from different tables or passages of the source.
What was measured:
[1] = test system: P. falciparum female gametocytes; experiment: P. falciparum female gametogenesis assay (Pf FGAA); settings: 1: YES; 0: NO
HepG2 cells [2] = settings: cited from earlier work
[3] = test system: P. falciparum late stage (stages IV-V) gametocytes; experiment: P. falciparum late stage gametocyte ATP depletion assay (Pf GC-ATP); settings: 1: YES; 0: NO
HepG2 cells [4] = experiment: HepG2 cytotoxicity assay
Procedure, shortened: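 Cells at 2,500 per well in MEM with 10% fetal bovine serum and 1% NEAA were exposed to test compounds for 48 h at 37°C, 5% CO2. Viability was read by fluorescence, with percent inhibition calculated against 50 μM doxorubicin (positive) and DMSO (negative) controls.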

[5] = test system: P. falciparum late stage (stages IV-V) gametocytes; parameters: method as in Almela et al 2016; settings: ref Almela et al 2016, read-out: Pf GCT ATP IC50, cited from earlier work
[6] = test system: P. falciparum female gametocytes; parameters: method as in Miguel-Blanco et al 2017; settings: ref Miguel-Blanco et al 2017, read-out: Pf FGAA IC50, cited from earlier work
[7] = value reported with the Pf FGAA screen, ref Miguel-Blanco et al 2017
[8] = value reported with the Pf GCT ATP screen, ref Almela et al 2016
[9] = HepG2 cytotoxicity unified across the three screens
[10] = HepG2 values of the three screens unified

| Structure (SMILES) | Is compound selective in assay? Pf FGAA active? [1] | HepG2 cytoxicity (HepG2 cells [2]; [7]) [µM] | HepG2 cytoxicity (HepG2 cells [2]; [8]) [µM] | Is compound selective in assay? Pf GC-ATP active? [3] | Unified cytotox (HepG2 cells [4]; [9]) [µM] | IC50 ([5]; TCAMS screen comparison) [nM] | IC50 ([6]; TCAMS screen comparison) [nM] | HepG2 cytoxicity (Pf GCT ATP screen) (HepG2 cells [2]; ref Almela et al 2016) [µM] | HepG2 cytoxicity (Pf FGAA screen) (HepG2 cells [2]; ref Miguel-Blanco et al 2017) [µM] | Unified cytotox (HepG2 cells [4]; [10]) [µM] | IC50 [5] [nM] | IC50 [6] [nM] |
| --- | --- | --- | --- | --- | --- | --- | --- | --- | --- | --- | --- | --- |
| CC(C)(C)c1ccc(-c2cc3c(ccc4nc(N)nc(N)c43)[nH]2)cc1 [TCMDC-137977] | 0 (0: NO) | 1.86 | 3.26 | 0 (0: NO) | 2.56 | 550 | 770 |  |  |  |  |  |
| COc1ccc2c(c1CCNCCCCNCCc1c(OC)ccc3c1CCCC3)CCCC2.CS(=O)(=O)O [TCMDC-137324] | 0 (0: NO) | 1.68 | 0.75 | 0 (0: NO) | 1.21 | 150 | 640 |  |  |  |  |  |
| COc1ccc(CNC(=O)c2cnc3c(O)cccc3c2Nc2cccc(NC(=O)c3ccc(Cl)c(Cl)c3)c2)cc1.O=C(O)C(F)(F)F [TCMDC-139607] | 0 (0: NO) |  | <1.56 | 0 (0: NO) | 1.56 | 680 | 1600 |  |  |  |  |  |
| COc1c(CCNCCCCNCCc2cc(Cl)c3ccccc3c2OC)cc(Cl)c2ccccc12.CS(=O)(=O)O [TCMDC-137869] | 0 (0: NO) |  |  | 1 (1: YES) |  |  |  | 3.36 | 1.78 | 2.57 | 80 | 330 |
| CCn1c(-c2nonc2N)nc2c(-c3cc4ccccc4s3)ncc(C(=O)N3CCC(N)C3)c21.O=C(O)C(F)(F)F (centres unmarked) [TCMDC-135281] | 0 (0: NO) | 1.00 | 3.5 | 0 (0: NO) | 2.25 | 350 | 450 |  |  |  |  |  |
| CN(C)CCNCc1cccc(-c2ccc3c(Nc4ccc(Oc5ccccn5)cc4)ccnc3c2)c1 [TCMDC-138493] | 0 (0: NO) | 3.98 | 4.49 | 1 (1: YES) | 4.24 | 220 | 820 |  |  |  |  |  |
| CCCOc1ccc2ccccc2c1CNCCCCCCNCc1c(OCCC)ccc2ccccc12.CS(=O)(=O)O [TCMDC-137966] | 0 (0: NO) | 2.00 | 3.1 | 0 (0: NO) | 2.55 | 340 | 1030 |  |  |  |  |  |
| COc1cccc(OC)c1CN1CCC(N(C)CCCCCCCCN2CCC(OC(=O)Nc3ccccc3-c3ccccc3)CC2)CC1 [TCMDC-134684] | 0 (0: NO) | 1.93 | 3.4 | 0 (0: NO) | 2.66 | 1040 | 2260 |  |  |  |  |  |
| O=C(c1ccc([N+](=O)[O-])o1)N1CCC(Cc2ccc(C(F)(F)F)cc2)CC1 [TCMDC-124805] | 1 (1: YES) | 27.05 | 14.11 | 1 (1: YES) | 20.58 | 260 | 160 |  |  |  |  |  |
| CC(C)(C)c1ccc(-c2nc3c(ccc4nc(N)nc(N)c43)[nH]2)cc1.Cl [TCMDC-137984] | 1 (1: YES) | 2.12 | 3.85 | 1 (1: YES) | 2.98 | 210 | 260 |  |  |  |  |  |
| COc1ccc(CCNCCCCCCNCCc2ccc(-c3ccccc3)cc2)cc1OC.Cl [TCMDC-131267] | 0 (0: NO) | 6.90 | 3.25 | 1 (1: YES) | 5.07 | 170 | 1260 |  |  |  |  |  |
| Cl.N=C(NCCCCC1CCCCC1)c1cccc(C(=N)NCCCCC2CCCCC2)n1 [TCMDC-137452] | 0 (0: NO) | 1.82 | 1.6 | 0 (0: NO) | 1.71 | 220 | 1050 |  |  |  |  |  |
| CCCCOc1ccc(CNCCCCCCNCc2ccc(OCCCC)c3ccccc23)c2ccccc12.CS(=O)(=O)O [TCMDC-137281] | 0 (0: NO) | 2.29 | 3.04 | 0 (0: NO) | 2.67 | 2800 | 400 |  |  |  |  |  |
| Fc1ccc(NC(S)=NN=Cc2ccccn2)cc1 [TCMDC-125521] | 1 (1: YES) | >100 | 23.35 | 1 (1: YES) | 100.00 | 120 | 27.1 |  |  |  |  |  |
| COc1cccc(OC)c1CN1CCC(N(C)CCCCCCCCCN2CCC(OC(=O)Nc3ccccc3-c3ccccc3)CC2)CC1 [TCMDC-134690] | 0 (0: NO) | 1.91 | <1.56 | 0 (0: NO) | 1.91 | 260 | 1310 |  |  |  |  |  |
| FC(F)(F)c1ccc2[nH]c(-c3ccc(-c4cccc(CNCCN5CCNCC5)c4)cc3)nc2c1.O=C(O)C(F)(F)F [TCMDC-132864] | 0 (0: NO) | 12.31 | 17.5 | 1 (1: YES) | 14.90 | 1080 | 1710 |  |  |  |  |  |
| S=C(NN=Cc1ccccn1)NC1CC2C=CC1C2 (centres unmarked) [TCMDC-125752] | 1 (1: YES) |  | 0.7 | 0 (0: NO) | 0.70 | 110 | 15.3 |  |  |  |  |  |
| CCCCOc1c(CCNCCCCNCCc2cc(OC)c3ccccc3c2OCCCC)cc(OC)c2ccccc12.CS(=O)(=O)O [TCMDC-137848] | 0 (0: NO) |  |  | 1 (1: YES) |  |  |  | 3.1 | 1.97 | 2.54 | 80 | 610 |
| CCc1c(CCNCCCCCCNC(C)Cc2ccc3c(c2CC)OCO3)ccc(OC)c1OC.Cl (centres unmarked) [TCMDC-132052] | 0 (0: NO) | 2.46 | 3.1 | 0 (0: NO) | 2.78 | 330 | 480 |  |  |  |  |  |

From paper PMC6753678, “Fueling Open Innovation for Malaria Transmission-Blocking Drugs: Hundreds of Molecules Targeting Early Parasite Mosquito Stages” (Frontiers in Microbiology, 2019)
